Source: PubChem BioAssay (NCI)
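A five-concentration, 48-hour dose response in 96-well plates underlies each endpoint, interpolated linearly between surrounding concentrations. The concentration for full growth arrest is given as TGI.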

Columns and labels:
Experiment in all cases: growth of human tumour cells (NCI), 48 h
SNB-19 CNS = system: SNB-19 CNS
OVCAR-3 ovarian = system: OVCAR-3 ovarian
SK-MEL-2 melanoma = system: SK-MEL-2 melanoma
M14 melanoma = system: M14 melanoma
EKVX NSCLC = system: EKVX NSCLC
DMS 114 small cell lung = system: DMS 114 small cell lung
NCI-H522 lung = system: NCI-H522 lung
HL-60(TB) leukemia = system: HL-60(TB) leukemia
SK-OV-3 ovarian = system: SK-OV-3 ovarian
CCRF-CEM leukemia = system: CCRF-CEM leukemia
HOP-62 NSCLC = system: HOP-62 NSCLC
UO-31 renal = system: UO-31 renal
NCI-H460 lung = system: NCI-H460 lung
MALME-3M melanoma = system: MALME-3M melanoma
SK-MEL-5 melanoma = system: SK-MEL-5 melanoma
OVCAR-5 ovarian = system: OVCAR-5 ovarian
DLD-1 colon = system: DLD-1 colon
DMS 273 small cell lung = system: DMS 273 small cell lung
SF-295 CNS = system: SF-295 CNS
CAKI-1 renal = system: CAKI-1 renal
U251 CNS = system: U251 CNS
LXFL 529 NSCLC = system: LXFL 529 NSCLC
NCI-H226 lung = system: NCI-H226 lung
HOP-92 NSCLC = system: HOP-92 NSCLC
COLO 205 colon = system: COLO 205 colon
HT29 colon = system: HT29 colon
MOLT-4 leukemia = system: MOLT-4 leukemia
UACC-62 melanoma = system: UACC-62 melanoma
SW-620 colon = system: SW-620 colon
SK-MEL-28 melanoma = system: SK-MEL-28 melanoma
SNB-78 CNS = system: SNB-78 CNS
LOX IMVI melanoma = system: LOX IMVI melanoma
A549 NSCLC = system: A549 NSCLC
NCI-H23 lung = system: NCI-H23 lung
A498 renal = system: A498 renal
M19-MEL melanoma = system: M19-MEL melanoma
SF-539 CNS = system: SF-539 CNS
ACHN renal = system: ACHN renal
786-0 renal = system: 786-0 renal
KM20L2 colon = system: KM20L2 colon
OVCAR-8 ovarian = system: OVCAR-8 ovarian
UACC-257 melanoma = system: UACC-257 melanoma
HCT-15 colon = system: HCT-15 colon
SNB-75 CNS = system: SNB-75 CNS
IGROV1 ovarian = system: IGROV1 ovarian
SF-268 CNS = system: SF-268 CNS
XF 498 CNS = system: XF 498 CNS
K-562 leukemia = system: K-562 leukemia
TK-10 renal = system: TK-10 renal
HCT-116 colon = system: HCT-116 colon
OVCAR-4 ovarian = system: OVCAR-4 ovarian
SN12C renal = system: SN12C renal
RXF 393 renal = system: RXF 393 renal
SR leukemia = system: SR leukemia
RPMI-8226 leukemia = system: RPMI-8226 leukemia
KM12 colon = system: KM12 colon
HCC-2998 colon = system: HCC-2998 colon

## N#C/C(c1nc2ccccc2[nH]1)=c1\s/c(=C(/N)O)c(=N)n1-c1ccccc1
SNB-19 CNS
  TGI: > 100 µM
OVCAR-3 ovarian
  TGI: > 100 µM
SK-MEL-2 melanoma
  TGI: > 100 µM
M14 melanoma
  TGI: > 100 µM
EKVX NSCLC
  TGI: > 100 µM
DMS 114 small cell lung
  TGI: > 100 µM
NCI-H522 lung
  TGI: > 100 µM
HL-60(TB) leukemia
  TGI: > 100 µM
SK-OV-3 ovarian
  TGI: > 100 µM
CCRF-CEM leukemia
  TGI: > 100 µM
HOP-62 NSCLC
  TGI: > 100 µM
UO-31 renal
  TGI: > 100 µM
NCI-H460 lung
  TGI: > 100 µM
MALME-3M melanoma
  TGI: > 100 µM
SK-MEL-5 melanoma
  TGI: > 100 µM
OVCAR-5 ovarian
  TGI: > 100 µM
DLD-1 colon
  TGI: > 100 µM
DMS 273 small cell lung
  TGI: > 100 µM
SF-295 CNS
  TGI: > 100 µM
CAKI-1 renal
  TGI: > 100 µM
U251 CNS
  TGI: > 100 µM
LXFL 529 NSCLC
  TGI: > 100 µM
NCI-H226 lung
  TGI: > 100 µM
HOP-92 NSCLC
  TGI: > 100 µM
COLO 205 colon
  TGI: > 100 µM
HT29 colon
  TGI: > 100 µM
MOLT-4 leukemia
  TGI: > 100 µM
UACC-62 melanoma
  TGI: > 100 µM
SW-620 colon
  TGI: > 100 µM
SK-MEL-28 melanoma
  TGI: > 100 µM
SNB-78 CNS
  TGI: > 100 µM
LOX IMVI melanoma
  TGI: > 100 µM
A549 NSCLC
  TGI: > 100 µM
NCI-H23 lung
  TGI: > 100 µM
A498 renal
  TGI: > 100 µM
M19-MEL melanoma
  TGI: > 100 µM
SF-539 CNS
  TGI: > 100 µM
ACHN renal
  TGI: > 100 µM
786-0 renal
  TGI: > 100 µM
KM20L2 colon
  TGI: > 100 µM
OVCAR-8 ovarian
  TGI: > 100 µM
UACC-257 melanoma
  TGI: > 100 µM
HCT-15 colon
  TGI: > 100 µM
SNB-75 CNS
  TGI: > 100 µM
IGROV1 ovarian
  TGI: > 100 µM
SF-268 CNS
  TGI: > 100 µM
XF 498 CNS
  TGI: > 100 µM
K-562 leukemia
  TGI: > 100 µM
TK-10 renal
  TGI: > 100 µM
HCT-116 colon
  TGI: > 100 µM
OVCAR-4 ovarian
  TGI: > 100 µM
SN12C renal
  TGI: > 100 µM

## COc1ccc(NC(=S)NNC(=O)c2nsc3ccccc23)cc1
SNB-19 CNS
  TGI: > 100 µM
OVCAR-3 ovarian
  TGI: 52.9 µM
SK-MEL-2 melanoma
  TGI: 90.8 µM
M14 melanoma
  TGI: 36.7 µM
EKVX NSCLC
  TGI: > 100 µM
DMS 114 small cell lung
  TGI: > 100 µM
HL-60(TB) leukemia
  TGI: 60.8 µM
HOP-62 NSCLC
  TGI: > 100 µM
RXF 393 renal
  TGI: 72.9 µM
UO-31 renal
  TGI: 69.1 µM
NCI-H460 lung
  TGI: > 100 µM
SK-MEL-5 melanoma
  TGI: > 100 µM
OVCAR-5 ovarian
  TGI: > 100 µM
DMS 273 small cell lung
  TGI: 81.5 µM
U251 CNS
  TGI: > 100 µM
LXFL 529 NSCLC
  TGI: > 100 µM
HOP-92 NSCLC
  TGI: 83.5 µM
SR leukemia
  TGI: > 100 µM
COLO 205 colon
  TGI: > 100 µM
HT29 colon
  TGI: > 100 µM
MOLT-4 leukemia
  TGI: 87.8 µM
UACC-62 melanoma
  TGI: 71.6 µM
SW-620 colon
  TGI: > 100 µM
SK-MEL-28 melanoma
  TGI: > 100 µM
SNB-78 CNS
  TGI: > 100 µM
LOX IMVI melanoma
  TGI: > 100 µM
A549 NSCLC
  TGI: > 100 µM
NCI-H23 lung
  TGI: > 100 µM
M19-MEL melanoma
  TGI: > 100 µM
SF-539 CNS
  TGI: 75.8 µM
RPMI-8226 leukemia
  TGI: > 100 µM
ACHN renal
  TGI: > 100 µM
KM20L2 colon
  TGI: > 100 µM
OVCAR-8 ovarian
  TGI: > 100 µM
UACC-257 melanoma
  TGI: > 100 µM
HCT-15 colon
  TGI: > 100 µM
SNB-75 CNS
  TGI: 66.8 µM
IGROV1 ovarian
  TGI: > 100 µM
SF-268 CNS
  TGI: > 100 µM
KM12 colon
  TGI: > 100 µM
K-562 leukemia
  TGI: > 100 µM
TK-10 renal
  TGI: > 100 µM
HCT-116 colon
  TGI: > 100 µM
OVCAR-4 ovarian
  TGI: > 100 µM
HCC-2998 colon
  TGI: > 100 µM
SN12C renal
  TGI: > 100 µM
